Measurements published in US4623646A, “PAF-antagonistic diazepines, methods of use” (Boehringer Ingelheim KG, priority 1984, dated 1986).

test system: PAF-induced aggregation of human thrombocytes; experiment: Inhibition of PAF-induced blood platelet aggregation in vitro; assay type: cell-based; conditions: thrombocyte-rich plasma, aggregation induced with PAF 5×10^-8 M, concentration giving a 50% inhibition of aggregation, read-out: PAF-Antag. IC50
Protocol: 1. Inhibition of blood platelet aggregation in vitro
The PAF-induced aggregation of human thrombocytes in vitro is used to determine PAF-antagonistic activity. To obtain thrombocyte-rich plasma (TRP) blood is taken from an uncongested vein using a plastic syringe containing 3.8% sodium citrate solution. The ratio of sodium citrate solution to blood is 1:9. After careful mixing the citrate blood is centrifuged for 20 minutes at 150 g (1200 rpm). The thrombocyte aggregation is measured using the method devised by Born and Cross (G. V. R. Born and M. J. Cross, J. Physiol. 168, 178 (1963)), by adding an aggregation initiator (PAF) to the TRP with constant stirring.
The test substance is added 2 to 3 minutes before aggregation is initiated in a volume of 10 μl. Either distilled water, ethanol and/or dimethylsulphoxide (each in suitable concentrations) can be used as solvent.
Control mixtures contain corresponding volumes of these solvents. After the initial absorption has been recorded (2 to 3 minutes) aggregation is induced with PAF (5×10^-8 M).
The maximum of the first aggregation wave is used to assess the effects of the substance. The PAF-induced maximum absorption rate (=maximum aggregation×100%) is tested at the same time in a parallel mixture (=control mixture in one of the channels of the two-channel aggregometer) as each test mixture (second channel) and is used as a 100% value.
The aggregation value attained under the effect of the test substance is given as a percentage of the control value, i.e. less than 100% in the case of an inhibition of aggregation and over 100% in the case of an increase.
Each test substance is investigated at concentrations of from 10^-3 to 10^-8 M with a random sampling of n=4 with regard to an inhibitory effect on the PAF-induced thrombocyte aggregation. Then a concentration-activity curve is drawn up using 3 concentrations and the IC50 is determined (concentration giving a 50% inhibition of aggregation).

**Q.** `CN1C(=O)CN=C(c2ccccc2)c2cc([N+](=O)[O-])cnc21` [compound 7] was tested. Which IC50 did it give?
**A.** 380 µM

**Q.** How did the IC50 turn out when `O=C1CN=C(c2ccccc2Cl)c2c(sc3c2CCCS3)N1` [compound 14] was run?
**A.** 234 µM

**Q.** With `Cc1nc2c(n1C)C(c1ccccc1)=NCC(=O)N2` [compound 30] as the compound, how does the IC50 read?
**A.** > 50 µM

**Q.** How did the IC50 turn out when `O=C1CN=C(c2ccccc2Cl)c2ccsc2N1` [compound 9] was run?
**A.** 760 µM

**Q.** For `O=C1CN=C(c2ccccc2Cl)c2sccc2N1` [compound 16], which IC50 is on record?
**A.** 500 µM

**Q.** How did the IC50 turn out when `Cc1ccc2c(c1)C(c1ccccc1Cl)=NCC(=O)N2` [compound 22] was run?
**A.** 580 µM

**Q.** `N#CCCn1nnc2c1NC(=O)CN=C2c1ccccc1Cl` [compound 17] was tested. Which IC50 did it give?
**A.** 1000 µM

**Q.** `CCn1nc(C)c2c1C(c1ccccc1)=NCC(=S)N2` [compound 20] was tested. Which IC50 did it give?
**A.** 250 µM

**Q.** How did the IC50 turn out when `O=C1CN=C(c2ccccc2Cl)c2c(sc3c2CCOC3)N1` [compound 26] was run?
**A.** 79 µM

**Q.** For `Cc1csc2c1C(c1ccccc1)=NCC(=O)N2` [compound 12], which IC50 is on record?
**A.** 280 µM

**Q.** How did the IC50 turn out when `CN1CCN=C(c2ccccc2)c2c(Cl)nsc21` [compound 18] was run?
**A.** 110 µM

**Q.** `CCC1N=C(c2ccccc2Cl)c2cc(Br)sc2NC1=O` (centres unmarked) [compound 24] was tested. Which IC50 did it give?
**A.** 530 µM

**Q.** Which IC50 does the source give for `CCc1cc2c(s1)NC(=O)CN=C2c1ccccc1Cl` [compound 10] here?
**A.** 325 µM

**Q.** For `O=C1CN=C(c2ccccc2)c2cc([N+](=O)[O-])cnc2N1` [compound 8], which IC50 is on record?
**A.** 250 µM

**Q.** How did the IC50 turn out when `O=C1CN=C(c2ccccc2)c2cc([N+](=O)[O-])ccc2N1` [compound 2] was run?
**A.** 220 µM

**Q.** How did the IC50 turn out when `O=C1CN=C(c2ccccc2Cl)c2cc([N+](=O)[O-])ccc2N1` [compound 3] was run?
**A.** 80 µM

**Q.** With `CCC1N=C(c2ccccc2Cl)c2ccsc2NC1=O` (centres unmarked) [compound 23] as the compound, how does the IC50 read?
**A.** 810 µM

**Q.** `O=C1CN=C(c2ccccc2Cl)c2cc(Cl)ccc2N1` [compound 28] was tested. Which IC50 did it give?
**A.** > 100 µM

**Q.** With `CCn1nc(C)c2c1NC(=O)CN=C2c1ccccc1Cl` [compound 15] as the compound, how does the IC50 read?
**A.** 870 µM

**Q.** For `CN1C(=O)CN=C(c2ccccc2F)c2cc([N+](=O)[O-])ccc21` [compound 4], which IC50 is on record?
**A.** 46 µM

**Q.** `CN1C(=O)CN=C(c2ccccc2Cl)c2cc([N+](=O)[O-])sc21` [compound 13] was tested. Which IC50 did it give?
**A.** 200 µM

**Q.** Which IC50 does the source give for `COC(=O)c1ccc2c(c1)C(c1ccccc1Cl)=NCC(=O)N2` [compound 29] here?
**A.** 120 µM

**Q.** How did the IC50 turn out when `COc1ccc2c(c1)C(c1ccccc1Cl)=NCC(=O)N2` [compound 25] was run?
**A.** > 100 µM

**Q.** Which IC50 does the source give for `CN1C(=O)CN=C(c2ccccc2Cl)c2cc(Br)sc21` [compound 11] here?
**A.** 170 µM

**Q.** With `COc1cccc2c1NC(=O)CN=C2c1ccccc1Cl` [compound 27] as the compound, how does the IC50 read?
**A.** 356 µM

**Q.** How did the IC50 turn out when `CCN(CC)CCN1C(=O)CN=C(c2ccccc2F)c2cc(Cl)ccc21` [compound 5] was run?
**A.** 80 µM

**Q.** How did the IC50 turn out when `CN1CCN=C(c2ccccc2Cl)c2cc(Cl)ccc21` [compound 21] was run?
**A.** 360 µM

**Q.** Which IC50 does the source give for `S=C1CN=C(c2ccccc2)c2cc(Cl)ccc2N1` [compound 19] here?
**A.** 620 µM

**Q.** How did the IC50 turn out when `CN1C(=O)CN=C(c2ccccc2)c2cc(Cl)ccc21` [compound 1] was run?
**A.** 250 µM
